Data on 3 molecules can be found in article PMC11755020 (Computational and Structural Biotechnology Journal, 2024).

The Kd is the constant that tells how readily two partners part at equilibrium.

In the experiment the target is T1, HNF4α (hepatocyte nuclear factor 4α) (Homo sapiens, UniProt P41235).
T1 sequence (P41235 147-377 limits assumed): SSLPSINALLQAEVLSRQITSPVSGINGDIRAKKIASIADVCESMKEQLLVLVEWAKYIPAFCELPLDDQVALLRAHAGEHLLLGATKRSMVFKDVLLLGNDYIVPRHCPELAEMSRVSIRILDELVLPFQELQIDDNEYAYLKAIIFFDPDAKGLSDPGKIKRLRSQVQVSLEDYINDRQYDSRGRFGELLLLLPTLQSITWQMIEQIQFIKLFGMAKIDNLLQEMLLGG
In words: microscale thermophoresis. Type of experiment: binding.

Structures are written as SMILES.

For `O=C(/C=C/c1ccc(O)c(O)c1)O[C@@H]1C[C@@](OC(=O)/C=C/c2ccc(O)c(O)c2)(C(=O)O)C[C@@H](O)[C@@H]1O` [cynarin], the Kd is 3110 µM. The same measure for `COc1c(/C=C/C(=O)c2ccc(O)cc2)ccc(O)c1O` [licochalcone B]: 78.2 µM. Next, `O=C(/C=C/c1ccc(O)c(O)c1)O[C@H](Cc1ccc(O)c(O)c1)C(=O)O` [rosmarinic acid]: 34.9 µM.
